In patent publication US6281196A, “Isolation and structural elucidation of the human cancer cell growth inhibitory compound denominated agelagalastatin” (Arizona Board of Regents, priority 2000, dated 2001):
≈ marks a conversion by molar mass, not a printed value.

Tests used:
ovary OVCAR-3 = experiment: human cancer cell line growth inhibition, ovary OVCAR-3; type: cell-based; settings: drug dose needed to reduce the percent growth to 50%
Excerpt: (§1) The current cost to develop the necessary data required for lawful marketing of a new drug compound approaches ten million dollars per compound. Economics dictate that such a huge investment be made only when there is a reasonable likelihood that it can be recovered. Absent such a likelihood, there will be no investment and, without investment, the research requisite for the discovery of these potentially life saving compounds will cease. Current research in the control of cancer in the United States is coordinated by the National Cancer Institute (NCI). To determine whether a substance has anti-cancer properties, the NCI has established a systematic protocol. This protocol, which involves the testing of a substance against a standard cell line panel containing 60 human tumor cell lines, has been verified and is accepted in scientific circles. The protocol, and the established statistical means for analyzing the results obtained by the standardized testing are fully described in the literature. […]
(§2) Each drug is tested at five (5) doses: 100-10-1-0.1-0.01 μg/ml. Percent Growths are calculated for each dose. […]

lung NCI-H460 = experiment: human cancer cell line growth inhibition, lung NCI-H460; type: cell-based; settings: drug dose needed to reduce the percent growth to 50%
Excerpt: as §1, §2

[1] = tested on: human cancer cell lines (brain SF-295, renal A498, colon KM20L2, melanoma SK-MEL-5, lung NCI-H460, ovarian OVCAR-3); experiment: in vitro activity against minipanel of human cancer cell lines; type: cell-based; settings: portion of minipanel including brain SF-295, renal A498, colon KM20L2 and melanoma SK-MEL-5
Excerpt: as §1, §2

L1210 leukemia cell line = settings: cited from earlier work
murine melanoma B16 = settings: cited from earlier work

## CCCCCCCCCCCCCCCCCCCCCC[C@@H](O)C(=O)N[C@@H](CO[C@H]1O[C@H](CO)[C@H](O)[C@H](O[C@@H]2O[C@@H]([C@@H](O)CO)[C@H](O)[C@H]2O[C@H]2O[C@@H]([C@@H](O)CO)[C@H](O)[C@H]2O)[C@H]1O)[C@H](O)[C@H](O)CCCCCCCCCCC(C)C [agelagalastatin]
Ovary OVCAR-3
  GI50: 2.8 µg/mL (≈ 2.42 µM)
Lung NCI-H460
  GI50: 0.77 µg/mL (≈ 0.666 µM)
[1]
  in vitro activity: significant in vitro activity

## CN1C(=O)NC2C3NC(=O)c4ccc(Br)n4C3CC21O (centres unmarked) [agelastatin A]
L1210 leukemia cell line
  cytotoxic: cytotoxic

## CCCCCCCCCCCCCCCCCCCCCCCCCC(=O)N[C@@H](CO[C@H]1O[C@H](CO)[C@H](O)[C@H](O)[C@H]1O)[C@H](O)[C@H](O)CCCCCCCCCCCCCC [structural modification (5)]
Murine melanoma B16
  in vivo active: in vivo active
